Measured values published in patent US20040147595A1, “Biofilm degrading or sloughing compositions and methods” (priority 2001, published 2004).
Like-named read-outs stand apart in the source and are kept apart here.

What was measured:
P. aeruginosa PAO1 = experiment: Growth (optical density) of P. aeruginosa PAO1; type: cell-based, Pseudomonas aeruginosa
Description: AHL and furanone bioassay. Strains were grown exponentially in LB or ABt medium supplemented with 0.5% glucose at 30° C., shading at 250 rpm. At an optical density of approximately 0.8. the cultures were diluted and split into subcultures in glass culture flasks. AHLs and furanone 56 were added to appropriate concentrations and the cultures were further incubated at 30° C. under vigorous shaking. Culture samples were retrieved at various time intervals and green fluorescence was measured with a fluorometer (model RF-1501, Shimadzu, Tokyo, Japan) set at an excitation wavelength of 475 nm and emission wavelength of 515 nm. Relative fluorescence was calculated as green fluorescence normalized to 1 ml culture divided by the optical density (OD600 nm.
To determine if the furanone compound worked specifically on the las quorum sensor and not indirectly by disruption of primary metabolic functions, we followed growth as optical density of P. aeruginosa PAO1 in the presence of furanone 56. […] Further, we tested whether the furanone affected P. aeruginosa protein synthesis. The wild type P. aeruginosa PAO1 strain containing the consitutive Gfp-expression vector pMH306 was grown in the presence of furanone 56 at concentrations from 0 to 10 μ/ml. Gfp-expression (fluorescence/OD600 nm) was throughout the growth cycle unaffected by the presence of furanone compound (data not shown).

P. aeruginosa PAO-JP2 = experiment: Growth of P. aeruginosa PAO-JP2; type: cell-based, Pseudomonas aeruginosa; settings: data not shown
E. coli MT102 = experiment: Growth of E. coli MT102; type: cell-based, Escherichia coli; settings: data not shown
Description: Effect of the furanone in a heterologous background. The direct regulation exerted by the las regulon on lasB expression is well described by numerous studies (Gambello & Iglewski, 1991: Pearson et al., 1994; Pearson et al., 1997). Regulatory complexity is added by the observation that the las quorum sensing circuit itself is subject to global regulators (Albus et al., 1997; Whiteley et al., 2000) and that lasB expression is also controlled by other regulators than LasR (Brumlik & Storey, 1992; Pesci et al., 1999; Schictman et al., 1995). It was, therefore, important to rule out that QSI effect, observed is not caused by furanone interaction with high levels of control. Since there is no AHL-based quorum sensing system present in Escherichia coli (Williams et al., 2000), this bacterium provides an unbiased and well-defined genetic background for studying the direct effects of the furanone on the P. aeruginosa las quorum sensing system. We repeated the above-described experiments using E. coli MT102 as a heterologous host for the reporter system. […] This is likely to be attributed to the increased copy number of the reporter plasmid.

[1] = tested on: lasB-gfp(ASV) reporter in P. aeruginosa PAO-JP2 biofilm; experiment: OdDHL-mediated signalling in PAO-JP2 flowcell biofilm, lasB-gfp(ASV) reporter, CSLM; type: cell-based, Pseudomonas aeruginosa
Description: P. aeruginosa biofilms. Biofilms were grown at 30° C. in three-dimensional flow cells (Christensen et al., 1999) with individual channel dimensions of 0.3×4×40 mm supplied With ABt minimal medium supplemented with 2% LB. The flow system was assembled and prepared as described by Christensen et al. (1999). The substratum consisted of a microscope glass coverslip (Knittel 24×50 mm st1, Knittel Glaser, Braunschweig, Germany). Cultures for inoculation of the flow channels were prepared in the following way: P. aeruginosa strains were streaked on LB plates with the appropriate antibiotics and incubated for 24 h at 37° C. From each plate a single colony was used for inoculation of 10 ml ABt with 10% LB. The cultures were grown at, 30° C. for 18 h before they were diluted to an OD600 nm of 0.1 in sterile 0.9% NaCl and used for inoculation of the flow channels. Medium flow was kept at a constant rate of 3 mL/h, equivalent to a mean flow velocity of 0.7 mm/s, using a Watson-Marlow 205S peristaltic pump (Watson-Marlow, Falmouth, England). Biofilms were grown for 24 hours before being shifted to media containing AHL and furanone.
Scanning confocal laser microscopy (SCLM). Microscopic inspection and image acquisition were performed an a scanning confocal laser microscope (model TCS4D, Leica Lasertechnik GmbH, Heldelberg, Germany) equipped with a 63×/1.32-0.6 oil objective. The microscope was equipped with a motorized and programmable xy-stage, which was used for monitoring single colonies during the biofilm experiments. At the beginning of each online experiment, the microscope was programmed to track single randomly selected microcolonies; the sensitivity of photo multipliers and the laser intensity were adjusted and thereafter kept constant through out the duration of the experiments. Image scanning was carried out using the 488 nm and 568 nm lines of an Ar/Kr laser for detection of Gfp and Rfp, respectively. Visualization of captured images was performed using the IMARIS software package (Bitplane AG, Zúrich, Switzerland) running on a Silicon Graphics Indigo 2 workstation (Silicon Graphics, Mountain View, Calif. USA).
Inhibition of AHL-mediated signalling in P. aeruginosa biofilms. The lasB-gfp(ASV) reported was integrated into the chromosome of PAO-JP2 to ensure stable segregation and a constant gene dosage of the reported system. The strain was growth in flowcells for 24 hours in ABt-LB medium and a 10-15 μm thick biofilm developed. The media flow was subsequently switched to ABt-LB medium containing the appropriate AHL and furanone concentrations. The development of green fluorescence was monitored online by CSLM for 8 hours.

[2] = tested on: protein synthesis (araC-PBAD-gfp(ASV)); experiment: araC-PBAD-gfp(ASV) expression in biofilm, protein synthesis control; type: cell-based, Pseudomonas aeruginosa; settings: furanone 56 below 10 μg/ml, 0.2% L-arabinose; data not shown
Description: To determine if the furanone-mediated inhibition of green fluorescence is due to subtle non-specific effects on protein synthesis when the bacteria are growing in a biofilm, we examined expression of green fluorescence in cells harboring the araC-PBAD-gfp(ASV) cassette induced by suboptimal levels of L-arabinose is (0.2%). The cells became green fluorescent within 2 hours after induction.

## O=C1C=C/C(=C/Br)O1 [furanone 56]
P. aeruginosa PAO1
  concentrations without effect on growth: < 10 µg/mL
P. aeruginosa PAO1; PAO1, concentrations used for this study (up to 10 μg/ml)
  effect on growth: no or only little effect on growth
P. aeruginosa PAO1; listed as furanone
  concentrations without effect on growth: below 10 μg/ml
P. aeruginosa PAO-JP2
  effect on growth rate: no effect on growth rate
E. coli MT102
  effect on growth: no effect on growth
[1]; 40 nM OdDHL and 2 μl/ml furanone 56, 8 hours
  induction of green fluorescence in biofilm: did not lead to induction of green fluorescence
[1]; 80 nM OdDHL and 2 μg/ml furanone 56
  induction of green fluorescence in biofilm: green fluorescence was induced
[1]; 80 nM OdDHL and 4 μg/ml furanone, data not shown
  induction of green fluorescence in biofilm: Induction of green fluorescence was established
[1]; 4 μg/ml alone, data not shown
  green fluorescence in biofilm: No green fluorescence was observed
[2]
  effect on Gfp-expression: no effect on Gfp-expression
